Laboratory results as given in patent US6518243B1, “Desleucyl glycopeptide antibiotics and methods of making same” (Trustees of Princeton University, priority 1999, dated 2003).

Columns and labels:
Experiment in all cases: Zone of inhibition screen, 96 well agar array format
Assay type in all cases: cell-based
Set-up in all cases: scale not given here
[1] = tested on: E. faecalis (CL 4877)
How it was run: (§1)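 Agar-array screen, 96-well; single compounds vs. strain panel (panel also incl. E. faecium ATCC 49624); antibacterial activity scored.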

[2] = tested on: S. aureus (ATCC 29213)
How it was run: as §1

[3] = tested on: S. epidermidis (ATCC 12228)
How it was run: as §1

[4] = zone of inhibition relative to 1 mg/ml stock solution of p-chlorobiphenylvancomycin
[5] = zone of inhibition relative to 1 mg/ml p-chlorobiphenylvancomycin

CC1OC(OC2C(Oc3c4cc5cc3Oc3ccc(cc3Cl)C(O)C3NC(=O)C(NC(=O)C5NC(=O)C(CC(N)=O)NC(=O)C(NC(=O)CO)C(O)c5ccc(c(Cl)c5)O4)c4ccc(O)c(c4)-c4c(O)cc(O)cc4C(C(=O)O)NC3=O)OC(CO)C(O)C2O)CC(C)(NCc2ccc(-c3ccc(Cl)cc3)cc2)C1O (stereo not drawn) [Compound 158]
2: zone score, E. faecalis CL 4877 [1, 4] | zone score, S. aureus ATCC 29213 [2, 4] | zone score, S. epidermidis ATCC 12228 [3, 4]

COc1ccc(C(=O)NC2C(=O)NC(CC(N)=O)C(=O)NC3C(=O)NC4C(=O)NC(C(=O)NC(C(=O)O)c5cc(O)cc(O)c5-c5cc4ccc5O)C(O)c4ccc(c(Cl)c4)Oc4cc3cc(c4OC3OC(CO)C(O)C(O)C3OC3CC(C)(NCc4ccc(-c5ccc(Cl)cc5)cc4)C(O)C(C)O3)Oc3ccc(cc3Cl)C2O)cc1OC (stereo not drawn) [Compound 253]
2: zone score, E. faecalis CL 4877 [1, 5] | zone score, S. aureus ATCC 29213 [2, 5] | zone score, S. epidermidis ATCC 12228 [3, 5]

CC1OC(OC2C(Oc3c4cc5cc3Oc3ccc(cc3Cl)C(O)C3NC(=O)C(NC(=O)C5NC(=O)C(CC(N)=O)NC(=O)C(NC(=O)c5ccccn5)C(O)c5ccc(c(Cl)c5)O4)c4ccc(O)c(c4)-c4c(O)cc(O)cc4C(C(=O)O)NC3=O)OC(CO)C(O)C2O)CC(C)(NCc2ccc(-c3ccc(Cl)cc3)cc2)C1O (stereo not drawn) [Compound 312]
2: zone score, E. faecalis CL 4877 [1, 5] | zone score, S. aureus ATCC 29213 [2, 5] | zone score, S. epidermidis ATCC 12228 [3, 5]

CC1OC(OC2C(Oc3c4cc5cc3Oc3ccc(cc3Cl)C(O)C3NC(=O)C(NC(=O)C5NC(=O)C(CC(N)=O)NC(=O)C(NC(=O)CNC(=O)C(CCC(N)=O)NC(=O)OCc5ccccc5)C(O)c5ccc(c(Cl)c5)O4)c4ccc(O)c(c4)-c4c(O)cc(O)cc4C(C(=O)O)NC3=O)OC(CO)C(O)C2O)CC(C)(NCc2ccc(-c3ccc(Cl)cc3)cc2)C1O (stereo not drawn) [Compound 211]
2: zone score, E. faecalis CL 4877 [1, 5] | zone score, S. aureus ATCC 29213 [2, 5] | zone score, S. epidermidis ATCC 12228 [3, 5]

CC1OC(OC2C(Oc3c4cc5cc3Oc3ccc(cc3Cl)C(O)C3NC(=O)C(NC(=O)C5NC(=O)C(CC(N)=O)NC(=O)C(NC(=O)CC[S+](C)C)C(O)c5ccc(c(Cl)c5)O4)c4ccc(O)c(c4)-c4c(O)cc(O)cc4C(C(=O)O)NC3=O)OC(CO)C(O)C2O)CC(C)(NCc2ccc(-c3ccc(Cl)cc3)cc2)C1O (stereo not drawn) [Compound 94]
2: zone score, E. faecalis CL 4877 [1, 4] | zone score, S. aureus ATCC 29213 [2, 4] | zone score, S. epidermidis ATCC 12228 [3, 4]

CCOCCC(=O)N[C@H]1C(=O)N[C@@H](CC(N)=O)C(=O)N[C@H]2C(=O)N[C@H]3C(=O)N[C@H](C(=O)N[C@@H](C(=O)O)c4cc(O)cc(O)c4-c4cc3ccc4O)[C@H](O)c3ccc(c(Cl)c3)Oc3cc2cc(c3O[C@@H]2O[C@H](CO)[C@@H](O)[C@H](O)[C@H]2O[C@@H]2C[C@@](C)(NCc3ccc(-c4ccc(Cl)cc4)cc3)[C@@H](O)[C@@H](C)O2)Oc2ccc(cc2Cl)[C@H]1O [Compound 258]
2: zone score, E. faecalis CL 4877 [1, 5] | zone score, S. aureus ATCC 29213 [2, 5] | zone score, S. epidermidis ATCC 12228 [3, 5]

CC1OC(OC2C(Oc3c4cc5cc3Oc3ccc(cc3Cl)C(O)C3NC(=O)C(NC(=O)C5NC(=O)C(CC(N)=O)NC(=O)C(NC(=O)C5CC(O)CN5)C(O)c5ccc(c(Cl)c5)O4)c4ccc(O)c(c4)-c4c(O)cc(O)cc4C(C(=O)O)NC3=O)OC(CO)C(O)C2O)CC(C)(NCc2ccc(-c3ccc(Cl)cc3)cc2)C1O (stereo not drawn) [Compound 54]
2: zone score, E. faecalis CL 4877 [1, 4] | zone score, S. aureus ATCC 29213 [2, 4] | zone score, S. epidermidis ATCC 12228 [3, 4]

CC1OC(OC2C(Oc3c4cc5cc3Oc3ccc(cc3Cl)C(O)C(NC(=O)C3CCCN3C(=O)C3CCCN3)C(=O)NC(CC(N)=O)C(=O)NC5C(=O)NC3C(=O)NC(C(=O)NC(C(=O)O)c5cc(O)cc(O)c5-c5cc3ccc5O)C(O)c3ccc(c(Cl)c3)O4)OC(CO)C(O)C2O)CC(C)(NCc2ccc(-c3ccc(Cl)cc3)cc2)C1O (stereo not drawn) [Compound 86]
2: zone score, E. faecalis CL 4877 [1, 4] | zone score, S. aureus ATCC 29213 [2, 4] | zone score, S. epidermidis ATCC 12228 [3, 4]

CC(=O)N1CCCC1C(=O)NC1C(=O)NC(CC(N)=O)C(=O)NC2C(=O)NC3C(=O)NC(C(=O)NC(C(=O)O)c4cc(O)cc(O)c4-c4cc3ccc4O)C(O)c3ccc(c(Cl)c3)Oc3cc2cc(c3OC2OC(CO)C(O)C(O)C2OC2CC(C)(NCc3ccc(-c4ccc(Cl)cc4)cc3)C(O)C(C)O2)Oc2ccc(cc2Cl)C1O (stereo not drawn) [Compound 116]
2: zone score, E. faecalis CL 4877 [1, 4] | zone score, S. aureus ATCC 29213 [2, 4] | zone score, S. epidermidis ATCC 12228 [3, 4]

CC(O)C(N)C(=O)NC1C(=O)NC(CC(N)=O)C(=O)NC2C(=O)NC3C(=O)NC(C(=O)NC(C(=O)O)c4cc(O)cc(O)c4-c4cc3ccc4O)C(O)c3ccc(c(Cl)c3)Oc3cc2cc(c3OC2OC(CO)C(O)C(O)C2OC2CC(C)(NCc3ccc(-c4ccc(Cl)cc4)cc3)C(O)C(C)O2)Oc2ccc(cc2Cl)C1O (stereo not drawn) [Compound 323]
2: zone score, E. faecalis CL 4877 [1, 5] | zone score, S. aureus ATCC 29213 [2, 5] | zone score, S. epidermidis ATCC 12228 [3, 5]

CC1OC(OC2C(Oc3c4cc5cc3Oc3ccc(cc3Cl)C(O)C3NC(=O)C(NC(=O)C5NC(=O)C(CC(N)=O)NC(=O)C(NC(=O)CCC(N)=O)C(O)c5ccc(c(Cl)c5)O4)c4ccc(O)c(c4)-c4c(O)cc(O)cc4C(C(=O)O)NC3=O)OC(CO)C(O)C2O)CC(C)(NCc2ccc(-c3ccc(Cl)cc3)cc2)C1O (stereo not drawn) [Compound 202]
2: zone score, E. faecalis CL 4877 [1, 4] | zone score, S. aureus ATCC 29213 [2, 4] | zone score, S. epidermidis ATCC 12228 [3, 4]
